pIC50: −log10 of the molar value. In brackets after ≈: the same amount, converted by molar mass.
Tests used:
physchem = conditions: pH 7.4, aqueous buffer, kinetic from dmso stock, Kinetic solubility at pH 7.4-7.5 (μM)
K562 = K562 cytotoxicity; assay type: cell-based; conditions: Homo sapiens
in vitro [1] = conditions: rat, plasma
[2] = Human microsomal stability; assay type: in vitro ADME; conditions: microsomes, read-out: Human microsom. t1/2
[3] = Permeability: CACO-2 A->B; assay type: in vitro ADME; conditions: human, Caco-2
Dog microsomal stability = assay type: in vitro ADME; conditions: microsomes, read-out: Dog microsom. t1/2
TopoIV/gyrase = TopoIV/gyrase inhibition ratio; assay type: biochemical
[4] = Permeability: MDCK II A->B; assay type: in vitro ADME; conditions: dog
[5] = test system: Mycobacterium chimaera intracellulare group; experiment: MIC50 against Mycobacterium chimaera intracellulare group; assay type: cell-based; conditions: n = 6
Streptococcus agalactiae = experiment: MIC50/90 against Streptococcus agalactiae; assay type: cell-based
Enterococcus spp. = experiment: MIC50/90 against Enterococcus spp.; assay type: cell-based; conditions: n = 10 (147), n = 20 (others)
in vitro [6] = conditions: mouse, plasma
M121K = experiment: MIC against M121K mutant; assay type: cell-based
Francisella tularensis = experiment: microbe, parasite or virus in culture; assay type: cell-based

In the case of `COc1ccc2ncc(F)c(C[C@H](O)[C@H]3OC[C@H](NCc4cnc5c(n4)NC(=O)CO5)CO3)c2n1` [Compound 284, 6-(((2-((S)-2-(3-fluoro-6-methoxy-1,5-naphthyridin-4-yl)-1-hydroxyethyl)-trans-1,3-dioxan-5-yl)amino)methyl)-2H-pyrazino[2,3-b][1,4]oxazin-3(4H)-one], the solubility kinetic (physchem) was 118 µM (≈ 57.2 µg/mL), the pIC50 (K562) was less than 3.70 and the half-life (in vitro [1]) was greater than 2 h. For the same compound, the half-life [2] was greater than 2 h, the Papp A→B [3] was 1.5 ×10⁻⁶ cm/s and the half-life (Dog microsomal stability) was greater than 2 h. The TopoIV/gyrase ratio (TopoIV/gyrase) was 0.28, the Papp A→B [4] was 0.74 ×10⁻⁶ cm/s and the MIC50 [5] was 64 µg/mL (≈ 132 µM). The MIC50 (Streptococcus agalactiae; Streptococcus agalactiae, n = 5 (147), n = 10 (others)) was 4 µg/mL (≈ 8.22 µM), the “Streptococcus agalactiae MIC90” value (Streptococcus agalactiae; n = 10) was 16 µg/mL and the MIC50 (Enterococcus spp.) was 1 µg/mL (≈ 2.06 µM). It also gave an MIC90 (Enterococcus spp.) of 2 µg/mL (≈ 4.11 µM), a half-life (in vitro [6]) greater than 2 h and an MIC (M121K) of 1 to 4 µg/mL (≈ 2.06 to 8.22 µM). For the same compound, the MIC50 (Francisella tularensis; read-out: Francisella tularensis MIC50 (μg/mL)) was 0.5 µg/mL (≈ 1.03 µM) and the MIC90 (Francisella tularensis; read-out: Francisella tularensis MIC90 (μg/mL)) was 4 µg/mL (≈ 8.22 µM).
